Test results from ChEMBL document CHEMBL1125524, “Adenosine A1 antagonists. 2. Structure-activity relationships on diuretic activities and protective effects against acute renal failure” (J Med Chem, 1992).

Legend:
Rattus norvegicus [1] = test: Serum creatinine concentration measured after intraperitoneal administration of 10 mg/kg of compound to rats(vehicle 2.89+/-0.30); assay type: functional
Rattus norvegicus [2] = test: Ratio of urinary excretion value (urinary volume) in treated rats to that in control rats, at a peroral dose of 12.5 mg/Kg; assay type: functional, Urine
Rattus norvegicus [3] = test: Ratio of sodium ion/potassium ion concentration in treated rats to that in control rats, at a peroral dose of 12.5 mg/Kg; assay type: functional
Rattus norvegicus [4] = test: Ratio of urinary excretion value (Na+ concentration) in treated rats to that in control rats, at a peroral dose of 12.5 mg/Kg; assay type: functional, Urine
Rattus norvegicus [5] = test: Ratio of urinary excretion value (Na+ concentration) in treated rats to that in control rats, at a peroral dose of 6.25 mg/Kg; assay type: functional, Urine
Rattus norvegicus [6] = test: Effect on urinary excretion potassium and sodium after oral administration of 12.5 mg/kg to rats(potassium and sodium excretion in control rat is 0.175+/-0.014); assay type: functional, Urine
Rattus norvegicus [7] = test: Percent inhibition of serum creatinine by the compound given as ratio of Cr value in treated to vehicle treated ones after intraperitoneal administration of 10 mg/kg of compound to rats(vehicle 2.89+/-0.30); assay type: functional; settings: ip
Rattus norvegicus [8] = test: Urea nitrogen concentration measured after intraperitoneal administration of 10 mg/kg of compound to rats(vehicle 93.6+/-8.6); assay type: functional
Rattus norvegicus [9] = test: Oral diuretic activity was measured after oral administration of 12.5 mg/kg to rats(control volume is 0.94+/-0.03); assay type: functional, Urine
Rattus norvegicus [10] = test: Percent inhibition of Urea nitrogen by the compound given as ratio of UN value in treated to vehicle treated ones after intraperitoneal administration of 10 mg/kg of compound to rats(vehicle 93.6+/-8.6); assay type: functional; settings: ip
Rattus norvegicus [11] = test: Ratio of urinary excretion value (urinary volume) in treated rats to that in control rats, at a peroral dose of 6.25 mg/Kg; assay type: functional, Urine
Adenosine A2 receptor [12] = molecular target: T1, Adenosine A2 receptor (Rattus norvegicus, UniProt P29276+P30543)
Description: Binding affinity towards adenosine A2 receptor in rat striatal membranes using N-[3H]-ethyladenosin-5''-uronamide as radioligand

Adenosine A2 receptor [13] = molecular target: T1, Adenosine A2 receptor; remark: listed apart in the source
Rattus norvegicus [14] = test: Serum creatinine concentration measured after intraperitoneal administration of 1 mg/kg of compound to rats(vehicle 3.62+/-0.52); assay type: functional
Rattus norvegicus [15] = test: Serum creatinine concentration measured after intraperitoneal administration of 10 mg/kg of compound to rats(vehicle 3.93+/-0.45); assay type: functional
Rattus norvegicus [16] = test: Effect on urinary excretion potassium and sodium after oral administration of 0.4 mg/kg to rats(potassium and sodium excretion in control rat is 0.191+/-0.020); assay type: functional, Urine
Rattus norvegicus [17] = test: Percent inhibition of serum creatinine by the compound given as ratio of Cr value in treated to vehicle treated ones after intraperitoneal administration of 10 mg/kg of compound to rats(vehicle 3.93+/-0.45); assay type: functional; settings: ip
Rattus norvegicus [18] = test: Ratio of urinary excretion value (urinary volume) in treated rats to that in control rats, at a peroral dose of 0.4 mg/Kg; assay type: functional, Urine
Rattus norvegicus [19] = test: Ratio of urinary excretion value (urinary volume) in treated rats to that in control rats, at a peroral dose of 1.6 mg/Kg; assay type: functional, Urine
Rattus norvegicus [20] = test: Percent inhibition of serum creatinine by the compound given as ratio of Cr value in treated to vehicle treated ones after intraperitoneal administration of 1 mg/kg of compound to rats(vehicle 3.62+/-0.52); assay type: functional; settings: ip
Rattus norvegicus [21] = test: Ratio of sodium ion/potassium ion concentration in treated rats to that in control rats, at a peroral dose of 0.4 mg/Kg; assay type: functional
Rattus norvegicus [22] = test: Ratio of sodium ion/potassium ion concentration in treated rats to that in control rats, at a peroral dose of 1.6 mg/Kg; assay type: functional
Rattus norvegicus [23] = test: Ratio of urinary excretion value (Na+ concentration) in treated rats to that in control rats, at a peroral dose of 0.4 mg/Kg; assay type: functional, Urine
Rattus norvegicus [24] = test: Ratio of urinary excretion value (Na+ concentration) in treated rats to that in control rats, at a peroral dose of 1.6 mg/Kg; assay type: functional, Urine
Rattus norvegicus [25] = test: Urea nitrogen concentration measured after intraperitoneal administration of 1 mg/kg of compound to rats(vehicle 105.2+/-14.9); assay type: functional
Rattus norvegicus [26] = test: Oral diuretic activity was measured after oral administration of 0.4 mg/kg to rats(control volume is 1.15+/-0.17); assay type: functional, Urine
Rattus norvegicus [27] = test: Oral diuretic activity was measured after oral administration of 1.6 mg/kg to rats(control volume is 0.96+/-0.09); assay type: functional, Urine
Rattus norvegicus [28] = test: Urea nitrogen concentration measured after intraperitoneal administration of 10 mg/kg of compound to rats(vehicle 129.1+/-14.5); assay type: functional
Rattus norvegicus [29] = test: Percent inhibition of Urea nitrogen by the compound given as ratio of UN value in treated to vehicle treated ones after intraperitoneal administration of 1 mg/kg of compound to rats(vehicle 105.2+/-14.9); assay type: functional; settings: ip
Rattus norvegicus [30] = test: Percent inhibition of Urea nitrogen by the compound given as ratio of UN value in treated to vehicle treated ones after intraperitoneal administration of 10 mg/kg of compound to rats(vehicle 129.1+/-14.5); assay type: functional; settings: ip
Rattus norvegicus [31] = test: Effect on urinary excretion potassium and sodium after oral administration of 1.6 mg/kg to rats(potassium and sodium excretion in control rat is 0.147+/-0.015); assay type: functional, Urine
Rattus norvegicus [32] = test: Serum creatinine concentration measured after intraperitoneal administration of 10 mg/kg of compound to rats(vehicle 4.98+/-0.08); assay type: functional
Rattus norvegicus [33] = test: Oral diuretic activity was measured after oral administration of 25 mg/kg to rats(control volume is 0.89+/-0.06); assay type: functional, Urine
Rattus norvegicus [34] = test: Percent inhibition of serum creatinine by the compound given as ratio of Cr value in treated to vehicle treated ones after intraperitoneal administration of 10 mg/kg of compound to rats(vehicle 4.98+/-0.08); assay type: functional; settings: ip
Rattus norvegicus [35] = test: Ratio of urinary excretion value (urinary volume) in treated rats to that in control rats, at a peroral dose of 25 mg/Kg; assay type: functional, Urine
Rattus norvegicus [36] = test: Ratio of sodium ion/potassium ion concentration in treated rats to that in control rats, at a peroral dose of 25 mg/Kg; assay type: functional
Rattus norvegicus [37] = test: Ratio of urinary excretion value (Na+ concentration) in treated rats to that in control rats, at a peroral dose of 25 mg/Kg; assay type: functional, Urine
Rattus norvegicus [38] = test: Effect on urinary excretion potassium and sodium after oral administration of 25 mg/kg to rats(potassium and sodium excretion in control rat is […]+/-[…]); assay type: functional, Urine
Rattus norvegicus [39] = test: Urea nitrogen concentration measured after intraperitoneal administration of 10 mg/kg of compound to rats(vehicle 150.7+/-3.4); assay type: functional
Rattus norvegicus [40] = test: Percent inhibition of Urea nitrogen by the compound given as ratio of UN value in treated to vehicle treated ones after intraperitoneal administration of 10 mg/kg of compound to rats(vehicle 150.7+/-3.4); assay type: functional; settings: ip
Adenosine receptor A1 = molecular target: T2, Adenosine receptor A1 (Cavia porcellus, UniProt P47745)
T2 sequence (P47745 whole entry): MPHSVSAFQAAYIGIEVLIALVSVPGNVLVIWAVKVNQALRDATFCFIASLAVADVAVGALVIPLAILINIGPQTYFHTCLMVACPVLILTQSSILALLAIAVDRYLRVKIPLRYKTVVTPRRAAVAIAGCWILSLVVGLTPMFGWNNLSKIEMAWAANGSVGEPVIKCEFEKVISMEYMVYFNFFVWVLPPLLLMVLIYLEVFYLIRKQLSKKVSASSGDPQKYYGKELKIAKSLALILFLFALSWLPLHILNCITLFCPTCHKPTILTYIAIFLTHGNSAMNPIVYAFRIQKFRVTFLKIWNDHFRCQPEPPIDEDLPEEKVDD
Description: Binding affinity against adenosine A1 receptor in guinea pig forebrain membranes using N6-[3H]cyclohexyladenosine as radioligand

CCCn1c(=O)c2nc(-c3ccc(S(=O)(=O)N(C)CCN(C)C)cc3)[nH]c2n(CCC)c1=O
Cr (Rattus norvegicus [1]): 2.31 mg/dL | T/C (Rattus norvegicus [2]): 1.64 | Na+/K+ (Rattus norvegicus [3]): 1.56 | T/C (Rattus norvegicus [4]): 1.78 | T/C (Rattus norvegicus [5]): 1.06 | Na (Rattus norvegicus [6]): 0.21 m equiv 6hr-1 100g-1 | inhibition in vivo at 10 mg/kg (Rattus norvegicus [7]): 20% | UN (Rattus norvegicus [8]): 62.6 mg/dL | Urine volume (Rattus norvegicus [9]): 1.54 ml 6hr-1 100g-1 | inhibition in vivo at 10 mg/kg (Rattus norvegicus [10]): 33% | T/C (Rattus norvegicus [11]): 1.17 | Ki (Adenosine A2 receptor [12]): 15.5 nM | Ki (Adenosine A2 receptor [13]): 26 nM

CCCCn1c(=O)c2nc(C(C3CC3)C3CC3)[nH]c2n(CCCC)c1=O
Cr (Rattus norvegicus [14]): 3.63 mg/dL | Cr (Rattus norvegicus [15]): 2.3 mg/dL | Na (Rattus norvegicus [16]): 0.276 m equiv 6hr-1 100g-1 | inhibition in vivo at 10 mg/kg (Rattus norvegicus [17]): 41% | T/C (Rattus norvegicus [18]): 1.08 | T/C (Rattus norvegicus [19]): 1.66 | inhibition in vivo at 1 mg/kg (Rattus norvegicus [20]): 0% | Na+/K+ (Rattus norvegicus [21]): 1.45 | Na+/K+ (Rattus norvegicus [22]): 1.66 | T/C (Rattus norvegicus [23]): 1.44 | T/C (Rattus norvegicus [24]): 1.91 | UN (Rattus norvegicus [25]): 101.1 mg/dL | Urine volume (Rattus norvegicus [26]): 1.24 ml 6hr-1 100g-1 | Urine volume (Rattus norvegicus [27]): 1.59 ml 6hr-1 100g-1 | UN (Rattus norvegicus [28]): 81.1 mg/dL | inhibition in vivo at 1 mg/kg (Rattus norvegicus [29]): 4% | inhibition in vivo at 10 mg/kg (Rattus norvegicus [30]): 37% | Na (Rattus norvegicus [31]): 0.282 m equiv 6hr-1 100g-1 | Ki (Adenosine A2 receptor [13]): 440 nM

CCCn1c(=O)c2c(nc(C(C3CC3)C3CC3)n2CC(=O)O)n(CCC)c1=O
Cr (Rattus norvegicus [32]): 4.79 mg/dL | Urine volume (Rattus norvegicus [33]): 1.02 ml 6hr-1 100g-1 | inhibition in vivo at 10 mg/kg (Rattus norvegicus [34]): 4% | T/C (Rattus norvegicus [35]): 1.15 | Na+/K+ (Rattus norvegicus [36]): 0.95 | T/C (Rattus norvegicus [37]): 1.14 | Na (Rattus norvegicus [38]): 0.185 m equiv 6hr-1 100g-1 | UN (Rattus norvegicus [39]): 145.5 mg/dL | inhibition in vivo at 10 mg/kg (Rattus norvegicus [40]): 3% | Ki (Adenosine receptor A1): 6900 nM | Ki (Adenosine A2 receptor [13]): > 100000 nM

Nc1nc2ccc(Cl)cc2c2nc(-c3ccco3)nn12 [CGS-15943]
T/C (Rattus norvegicus [35]): 1.02 | Na+/K+ (Rattus norvegicus [36]): 1.07 | T/C (Rattus norvegicus [37]): 1.46 | Ki (Adenosine A2 receptor [12]): 3.3 nM | Ki (Adenosine A2 receptor [13]): 0.73 nM
